This is an account of results in article PMC13289212, “HIVIL: A human in vitro inflammatory liver model recapitulates immune-associated drug effects with high predictivity” (NAM journal, 2025).

In assay [1] the test system is IL-6. In words: IL-6 ELISA in HIVIL (iKCs co-cultured with iHeps, LPS, 48 hr). It is filed as cell-based, human. The settings on record: HIVIL. On the technique in general: In an ELISA, binding on a coated surface is turned into a signal by an enzyme label.
For assay [2], the system named is IL-6. The assay is described as above. Format: cell-based, human. The settings on record: HIVIL co-treated with TVX and LPS.

With `N[C@@H]1[C@H]2CN(c3nc4c(cc3F)c(=O)c(C(=O)O)cn4-c3ccc(F)cc3F)C[C@@H]12` [TVX, Trovafloxacin], the “effect on cytokine production” value in the assay on IL-6 [1] (high doses (>25 μM)) is recorded as “inhibitory effects”. Moreover, in the assay with IL-6 [1] (low dose 3.125 μM and 6.25 μM), the IL-6 induction was determined as 1.5 fold. Further, the IC50 – broadly, the concentration at which inhibition is half-maximal – in the assay on IL-6 [1] (Homo sapiens, LPS, 48 hr) is 16.2 µM. The “IL-6 decline after 24 h” value in the assay on IL-6 [2] came to 57.3%.
